We go through two molecules from patent US20180228795A1, “COMBINATION THERAPY FOR CANCER” (Eli Lilly and Company, priority 2015, published 2018).

Assay in all cases: Antitumor effects in PDX mouse model of TNBC
Common to all, as to format: in vivo

For one experiment, the system named is PDX TNBC Model CTG-0012. The conditions noted are these: PDX model CTG-0012; A 10 mg/kg SC BID 3 days on/4 off ×4; B 7.5 mg/kg PO BID×28; versus vehicle. From the text: (§1) Establish PDX tumor models from viable human tumor tissue and serially passage in immunocompromised female mice a limited number of times. Using tumor fragments harvested from donor host animals, perform unilateral subcutaneous implants from a specific passage of the PDX tumor model on the flanks of the experimental animals. When tumor volumes reach approximately 150-250 mm^3 in size, randomize the animals by treatment arm by randomization techniques well known in the art and place into their respective treatment groups using 1 animal per treatment group (3 animals in an untreated group). Formulate CHK1 inhibitor, 5-(5-(2-(3-aminopropoxy)-6-methoxyphenyl)-1H-pyrazol-3-ylamino)pyrazine-2-carbonitrile methanesulfonate hydrate, (Compound A) every 14 days in 20% captisol (dissolved in water) and administer subcutaneously twice daily at a dose of 10 mg/kg on days 1/2/3 of a weekly cycle for 4 weeks (SC, BID [3 days on/4 off]×4). Formulate the PI3K/mTOR dual inhibitor, 8-[5-(1-hydroxy-1-methylethyl)pyridin-3-yl]-1-[(2S)-2-methoxypropyl]-3-methyl-1,3-dihydro-2H-imidazo[4,5-c]quinolin-2-one, (Compound B) weekly in 1% (HEC)/0.25% Tween 80 (Polysorbate 80)/0.05% Dow-Corning Antifoam 1510-US and administer by oral gavage twice-daily for 28 days (PO, BID×28) at a dose of 7.5 mg/kg. Dose combination treatment animals with both compounds according to the schedule described above for monotherapy, and dose vehicle treatment animals with vehicle according to the schedule for Compound B.
(§2) Test the combination of Compound A and Compound B, as well as their respective monotherapies, in 40 PDX models (Table 1) of TNBC. Assess antitumor efficacy of the treatment groups by measuring tumor volume via caliper measurements twice a week during the course of the study. Measure body weight twice weekly during the course of the study as a general indicator of tolerability.
(§3) Capture tumor size and body weight twice per week. Estimate tumor volume (V) by using the formula: V=(π/6)×L×W^2 where L=larger of measured diameter and W=smaller perpendicular diameter. Calculate relative tumor volume using the tumor volume measurement taken nearest to the last day of dosing for each animal (T), divided by the baseline tumor volume for that animal (T0), which is the volume recorded on or just prior to the first day of dosing, Y=T/T0. Calculate % ΔT/ΔC values using the formula % ΔT/ΔC=100(YT−1)/(YC−1), whereby YT or YC=geometric mean relative volume of the compound treated group or the control group, respectively. Tumor growth inhibition is observed in those instances where the calculated values for % ΔT/ΔC are less than 100% whereby greater inhibition results in smaller % ΔT/ΔC values. If ΔT<0, then a tumor regression value is calculated instead of % ΔT/ΔC whereby % Regression=100(YT−1). Note that negative values indicate regression. We collectively refer to % ΔT/ΔC and % Regression as % Response.
(§4) Examine relative tumor volume (final volume divided by baseline volume) on the last day of treatment or the last day on which data from all three treatment groups and vehicle is available, if it is earlier than the last day of treatment and at least 14 days after baseline. Expected additive relative volume is determined using the Bliss method (Bliss, C. I., Ann Appl Biol, 1939; 26(3):585-615). Specifically, denoting Y=relative volume, YExp=(Y1*Y2)/YV, where YExp=expected additive relative volume, Y1 and Y2 are the relative volumes in the single agent groups (Compound A and Compound B), and YV is the relative volume in the vehicle group. A range of additivity is defined around the expected additive relative volume via upper and lower limits as follows:
(§5) Yupper=max(2*YExp,YExp+0.2)
(§6) Ylower=min(YExp/2,YExp−0.2)
(§7) The upper limit of the range is the larger of 2-fold above or 20% above the expected additive relative volume, and the lower limit is the smaller of 2-fold below or 20% below the expected additive relative volume. […]

For the next experiment, the system named is PDX TNBC Model CTG-0052. The conditions noted are these: PDX model CTG-0052; A 10 mg/kg SC BID 3 days on/4 off ×4; B 7.5 mg/kg PO BID×28; versus vehicle.
From the text: as §1, §2, §3, §4, §5, §6, §7

The test system of another experiment is PDX TNBC Model CTG-0670. The following applies: PDX model CTG-0670; A 10 mg/kg SC BID 3 days on/4 off ×4; B 7.5 mg/kg PO BID×28; versus vehicle.
From the text: as §1, §2, §3, §4, §5, §6, §7

A further experiment has as its system PDX TNBC Model CTG-0888. The conditions noted are these: PDX model CTG-0888; A 10 mg/kg SC BID 3 days on/4 off ×4; B 7.5 mg/kg PO BID×28; versus vehicle.
From the text: as §1, §2, §3, §4, §5, §6, §7

Another experiment deals with PDX TNBC Model CTG-1167. The conditions noted are these: PDX model CTG-1167; A 10 mg/kg SC BID 3 days on/4 off ×4; B 7.5 mg/kg PO BID×28; versus vehicle.
From the text: as §1, §2, §3, §4, §5, §6, §7

The subject of the next experiment is PDX TNBC Model MAXF 1384. The conditions noted are these: PDX model MAXF 1384; A 10 mg/kg SC BID 3 days on/4 off ×4; B 7.5 mg/kg PO BID×28; versus vehicle.
From the text: as §1, §2, §3, §4, §5, §6, §7

A further experiment deals with PDX TNBC Model MAXF 508. The conditions noted are these: PDX model MAXF 508; A 10 mg/kg SC BID 3 days on/4 off ×4; B 7.5 mg/kg PO BID×28; versus vehicle.
From the text: as §1, §2, §3, §4, §5, §6, §7

The subject of the next experiment is PDX TNBC Model MAXF 583. The following applies: PDX model MAXF 583; A 10 mg/kg SC BID 3 days on/4 off ×4; B 7.5 mg/kg PO BID×28; versus vehicle.
From the text: as §1, §2, §3, §4, §5, §6, §7

In a further experiment the test system is PDX TNBC Model ST1077. The following applies: A 10 mg/kg SC BID 3 days on/4 off ×4, B 7.5 mg/kg PO BID×28, versus vehicle.
From the text: as §1, §2, §3, §4, §5, §6, §7

The next experiment relates to PDX TNBC Model ST1283. The conditions noted are these: A 10 mg/kg SC BID 3 days on/4 off ×4, B 7.5 mg/kg PO BID×28, versus vehicle.
From the text: as §1, §2, §3, §4, §5, §6, §7

A further experiment relates to PDX TNBC Model ST430. The conditions noted are these: A 10 mg/kg SC BID 3 days on/4 off ×4, B 7.5 mg/kg PO BID×28, versus vehicle.
From the text: as §1, §2, §3, §4, §5, §6, §7

The subject of the next experiment is PDX TNBC Model ST575. The following applies: A 10 mg/kg SC BID 3 days on/4 off ×4, B 7.5 mg/kg PO BID×28, versus vehicle.
From the text: as §1, §2, §3, §4, §5, §6, §7

The subject of another experiment is PDX TNBC Model ST821. The following applies: A 10 mg/kg SC BID 3 days on/4 off ×4, B 7.5 mg/kg PO BID×28, versus vehicle.
From the text: as §1, §2, §3, §4, §5, §6, §7

The next experiment relates to PDX TNBC Model ST996. The following applies: A 10 mg/kg SC BID 3 days on/4 off ×4, B 7.5 mg/kg PO BID×28, versus vehicle.
From the text: as §1, §2, §3, §4, §5, §6, §7

With `COc1cccc(OCCCN)c1-c1cc(Nc2cnc(C#N)cn2)n[nH]1.CS(=O)(=O)O` [Compound A, 5-(5-(2-(3-aminopropoxy)-6-methoxyphenyl)-1H-pyrazol-3-ylamino)pyrazine-2-carbonitrile methanesulfonate hydrate], the “% Rsp. (% ΔT/ΔC or % Regression)” value in the experiment with PDX TNBC Model CTG-0012 came out at 33.4%; with PDX TNBC Model CTG-0052, 41.3%; in the experiment with PDX TNBC Model CTG-0670 it was 112.8%; in the experiment with PDX TNBC Model CTG-0888 it was 15.0%; in the experiment with PDX TNBC Model CTG-1167 it was 62.3%; in the experiment with PDX TNBC Model MAXF 1384, 52.8%. The “% Rsp. (% ΔT/ΔC or % Regression)” value in the experiment on PDX TNBC Model MAXF 508 is listed as −100.0%; in the experiment on PDX TNBC Model MAXF 583, 9.6%; with PDX TNBC Model ST1077 it was 0.0%; in the experiment with PDX TNBC Model ST1283 it was 0.0%; in the experiment on PDX TNBC Model ST430 it was 80.9%; in the experiment on PDX TNBC Model ST575, −87.5%. Further, the “% Rsp. (% ΔT/ΔC or % Regression)” value with PDX TNBC Model ST821 is reported as −81.9%; with PDX TNBC Model ST996, 0.7%.
Take `CO[C@@H](C)Cn1c(=O)n(C)c2cnc3ccc(-c4cncc(C(C)(C)O)c4)cc3c21` [Compound B, 8-[5-(1-hydroxy-1-methylethyl)pyridin-3-yl]-1-[(2S)-2-methoxypropyl]-3-methyl-1,3-dihydro-2H-imidazo[4,5-c]quinolin-2-one]: the “% Rsp. (% ΔT/ΔC or % Regression)” value is 49.0% in the experiment on PDX TNBC Model CTG-0012; 8.6% in the experiment on PDX TNBC Model CTG-0052; 117.6% with PDX TNBC Model CTG-0670; 21.2% in the experiment with PDX TNBC Model CTG-0888; 65.8% in the experiment on PDX TNBC Model CTG-1167; 60.3% in the experiment on PDX TNBC Model MAXF 1384. Also, the “% Rsp. (% ΔT/ΔC or % Regression)” value in the experiment on PDX TNBC Model MAXF 508 was found to be 41.3%; with PDX TNBC Model MAXF 583, 121.1%; with PDX TNBC Model ST1077 it was 9.1%; with PDX TNBC Model ST1283, 23.3%; in the experiment with PDX TNBC Model ST430 it was 59.2%; with PDX TNBC Model ST575, 51.3%. The results for the “% Rsp. (% ΔT/ΔC or % Regression)” value with PDX TNBC Model ST821 and in the experiment on PDX TNBC Model ST996 were 78.5% and 23.5%, respectively.
